What was measured:
HeLa cells = assay: Monitoring ROS production by flow cytometry (HE and DCFH-DA staining); format: cell-based, human; conditions: Ad.hPNPase 50 pfu/cell, plus 20 mM NAC
Description: Cell Lines, Reagents and Virus Infection protocol. The human cervical carcinoma cell line HeLa was cultured in Dulbecco's Modified Eagle Medium (DMEM) supplemented with 10% fetal calf serum, penicillin (50 units/ml) and streptomycin (50 μg/ml) at 37° C. in 5% CO2 and 100% relative humidity. N-acetyl-L-cysteine and Tiron were obtained from Sigma (St. Louis, Mo.). The recombinant replication-incompetent adenovirus expressing old-35 (Ad.hPNPase) was created in two steps as described previously and plaque purified by standard procedures (1, 28). Cells were infected with a multiplicity of infection (m.o.i.) of 1 to 50 plaque forming units (pfu)/cell of Ad.vec (control replication-incompetent adenovirus) or Ad.hPNPase as described (29).
Monitoring ROS Production. Cells were stained with 2.5 μM hydroethidine (HE) and 5 μM 5,6-carboxy-2′,7′-dichlorofluorescein diacetate (DCFH-DA) in PBS for 30 min in the dark (32). Immediately after staining the cells were analyzed by flow cytometry (FACScan; Becton Dickinson, Mountain View, Calif.) and data were analyzed using CellQuest software, version 3.1 (Becton Dickinson). The cells were gated to exclude cell debris.

IκBα, p65 = assay: Western blot of cytoplasmic and nuclear extracts; format: cell-based, human; conditions: 20 mM NAC, 2 days post-infection
Description: Cell Fractionation. Cells were harvested and the cytoplasm and nucleus were fractionated by the modified Schreiber's method as described (31). Briefly, the cells were washed with PBS and lysed for 10 min in Buffer A (10 mM HEPES pH 7.9, 10 mM KCl, 1.5 mM MgCl2, 1 mM EDTA, 1 mM dithiothreitol, 0.1% Nonidet P-40) containing protease inhibitor cocktail (Roche, Mannheim, Germany). After centrifugation, the supernatant was saved as the cytoplasmic fraction and the pellet containing nuclei was lysed in Buffer B (20 mM HEPES pH 7.9, 400 mM KCl, 20% glycerol, 1 mM EDTA, 1 mM DTT) containing protease inhibitor cocktail (Roche) with one freeze-thaw cycle. After centrifugation the supernatant was collected as the nuclear fraction. Protein concentration was determined by Bio-Rad protein assay kit (Bio-Rad laboratories, Hercules, Calif.).
Preparation of Whole Cell Lysates and Western Blot Analysis. Whole cell lysates were prepared and Western blotting was performed as described (4). Briefly, cells were harvested in RIPA buffer containing protease inhibitor cocktail (Roche, Mannheim, Germany), 1 mM Na3VO4 and 50 mM NaF and centrifuged at 12,000 rpm for 10 min at 4° C. The supernatant was used as total cell lysate. Thirty μg of total cell lysate were used for SDS-PAGE and transferred to a nitrocellulose membrane. […]

IL-6 = assay: Human IL-6 ELISA in culture supernatants; format: cell-based; conditions: HeLa, Ad.hPNPase 50 pfu/cell; plus 20 mM NAC
Excerpt: (§1) Human IL-6 and IL-8 ELISA. The levels of IL-6 and IL-8 were quantified by ELISA in culture supernatants using human IL-6 ELISA kit (Pierce Biotechnology, Rockford, Ill.) and human IL-8 ELISA kit (Pierce), respectively, according to the manufacturer's protocol.

IL-8 = assay: Human IL-8 ELISA in culture supernatants; format: cell-based; conditions: HeLa, Ad.hPNPase 50 pfu/cell; plus 20 mM NAC
Excerpt: as §1

[1] = test system: hPNPase^OLD-35 and Myc proteins; assay: Western blot after IFN-β treatment or siRNA; format: cell-based, human
HO-1 cells [2] = assay: MTT cell viability assay; format: cell-based, human; conditions: HO-1 clones, more pronounced after 6 days
Description: (§2) Transfection of siRNA: Cells (5×10^5) were plated in a 6 cm dish and the next day were transfected with 25 nM of either control siRNA or c-myc siRNA (Ambion; catalogue# 4250) using Lipofectamine 2000 (Invitrogen) according to the Manufacturer's protocol. After 24 h, the cells were trypsinized and seeded into 96-well plates for cell viability assays and 6-cm dishes for colony formation assays and cell cycle analyses as described above.

HO-1 cells [3] = assay: Colony formation assay with IFN-β; format: cell-based, human; conditions: HO-1 clones
Description: as §2

[4] = test system: HO-1, WM-35, MeWo and FM-516 cells; assay: Cell cycle analysis by flow cytometry after IFN-β; format: cell-based, human; conditions: HO-1 clones, IFN-β 1000 U/ml
Description: Cell Cycle Analysis: Cells were harvested, washed in PBS and fixed overnight at −20° C. in 70% ethanol. The cells were treated with RNase A (1 mg/ml) at 37° C. for 30 min and then with propidium iodide (50 μg/ml). Cell cycle was analyzed using a FACScan flow cytometer and data were analyzed using CellQuest software (Becton Dickinson, San Jose, Calif.).

c-myc mRNA = assay: Half-life of c-myc mRNA (Actinomycin D, Northern blot); format: cell-based, human; conditions: HO-1 clones expressing the siRNA, compared to control untreated cells
Description: RNA Isolation and Northern Blot Analysis: Total RNA was extracted from cells using Qiagen RNeasy mini kit (Qiagen) according to the manufacturer's protocol and Northern blotting was performed as described (102). The cDNA probes used were a 400-bp fragment from human c-myc, a 500-bp fragment from hPNPase^old-35 and full-length human GAPDH.

Row | Compound | percentage of high ROS containing cells (HeLa cells; 24 hr) [%] | percentage of high ROS containing cells (HeLa cells; 36 hr) [%] | degradation of IκBα and nuclear translocation of p65 by Ad.hPNPase^old-35 infection (IκBα, p65) | secreted IL-6 in culture supernatant (IL-6) | secreted IL-8 in culture supernatant (IL-8) | inhibition in hPNPase^OLD-35 induction by IFN-β ([1]; HO-1 clone 1 expressing the siRNA, IFN-β 1000 U/ml, 2 days) [%] | ability to downregulate Myc in response to IFN-β ([1]; HO-1 clones 1, 4 and 5 expressing the siRNA) | response of siRNA expressing clones to IFN-β (MTT) (HO-1 cells [2]) | response of siRNA expressing clones to IFN-β-induced inhibition of colony formation (HO-1 cells [3]) | response of siRNA expressing clones to growth inhibition by IFN-β (cell cycle) [4] | half-life of c-myc mRNA after IFN-β (c-myc mRNA)
1 | CC(=O)N[C@@H](CS)C(=O)O [NAC, N-acetyl-L-cysteine] | ~2 | ~3 | inhibited | markedly inhibited | markedly inhibited |  |  |  |  |  | 
2 | hPNPase^old-35-siRNA: lentivirus-expressed siRNA for hPNPase^old-35, sequence 5′ AACAAAACCTTCCCCTTCCCA 3′ (SEQ ID NO:40) |  |  |  |  |  | ~100 | lost this ability | significant resistance | significant resistance | remarkable resistance | remained unchanged

Source: patent US20080057055A1, “OLD-35 as an inflammatory agent” (priority 2004, published 2008)
